In US10750729B2, “Pig for atrioventricular block model, monkey for atrioventricular block model, guinea pig for atrioventricular block model, and use thereof” (Toho University, priority 2012, dated 2020):
Values joined by “and” are separate entries in the source; they are usually repeats but may differ in a detail not shown here. Equal entries are not always repeated.

Legend:
[1] = test system: Monkeys (Macaca fascicularis); test: Test Example 2: electrocardiogram of halothane-anesthetized monkeys; assay type: in vivo; conditions: monkey, 50 min after the administration
Procedure: (§1) Monkeys (Macaca fascicularis, body weight: about 3 kg, male, produced in China, purchased from a domestic breeder) were each anesthetized by intravenously administering thereto sodium thiopental (product of Mitsubishi Tanabe Pharma Corporation) at 25 mg/kg. After insertion of a tracheal cannula, an artificial respirator was used to ventilate it with 100% by volume oxygen and 1% by volume vaporized halothane. Here, the artificial respirator for experimental animals was set to a tidal volume of 20 mL/kg and a respiration rate of 15 strokes/min. Next, a cannula for drug administration was inserted to their left femoral vein. Then, ECG standard limb II leads was continuously recorded.
Each of the monkeys (n=2) of Example 2 was recorded for an electrocardiogram before drug administration.
(§2) Fingolimod (FTY720, product of Sigma-Aldrich Inc.) was dissolved in physiological saline (product of Otsuka Pharmaceutical Factory, Inc.) so as to have a concentration of 0.1 mg/mL.
(§3) After the evaluation of base control, the cannula for drug administration was inserted, and the above-prepared FTY720 solution was intravenously administered to each of the monkeys (n=2) of Example 2 for 10 min at a dose of 0.1 mg/kg. An electrocardiogram was recorded for 60 min from the start of administration of the FTY720 solution.

[2] = test system: Extremely small-size miniature pigs (Microminipig); test: Test Example 1: electrocardiogram of halothane-anesthetized extremely small-size miniature pigs; assay type: in vivo; conditions: pig; for Heart rate (HR) / PR interval / QT interval / RR interval: 0.1 mg/kg/10 min i.v., individuals #1, #2, 0.1 mg/kg
Text: Extremely small-size miniature pigs (trade name: Microminipig, body weight: about 10 kg, male, obtained from Fuji Micra Inc.) were each anesthetized by allowing them to inhale 100% by volume oxygen and 4% by volume vaporized halothane (product of Takeda Pharmaceutical Company Limited.). After insertion of a tracheal cannula, an artificial respirator was used to ventilate it with 100% by volume oxygen and 1% by volume vaporized halothane. Here, the artificial respirator for experimental animals was set to a tidal volume of 10 mL/kg and a respiration rate of 20 strokes/min. Next, a cannula for drug administration was inserted to their left femoral vein. Then, ECG standard limb II leads was continuously recorded.
Each of the extremely small-size miniature pigs (n=2) of Example 1 was recorded for an electrocardiogram before drug administration.
as §2
as §3, with “the extremely small-size miniature pigs” for “the monkeys”, “Example 1” for “Example 2”

mouse = conditions: dose 10 times to 30 times greater than that for human; cited from earlier work
dog = conditions: dose 10 times to 30 times greater than that for human; cited from earlier work
human = conditions: 366 cases, 1.25 mg/day, Holter ECG one day after administration; cited from earlier work
Dogs = test: Comparative Test Example 1: electrocardiogram of halothane-anesthetized dogs; assay type: in vivo; conditions: dog, 30 min recording
Procedure: as §1, with “Dogs (body” for “Monkeys (Macaca fascicularis, body”, “10” for “about 3”, “obtained” for “produced in China, purchased”, “Nosan Co., Ltd.)” for “a domestic breeder)”, “30” for “25”
Each of the dogs (n=4) of Comparative Example 1 was recorded for an electrocardiogram before drug administration.
Fingolimod (FTY720, product of Sigma-Aldrich Inc.) was dissolved in 1% by mass lactic acid solution (product of Otsuka Pharmaceutical Factory, Inc.) so as to have a concentration of 0.3 mg/mL.
(§4) After the evaluation of base control, the cannula for drug administration was inserted, and the above-prepared FTY720 solution was intravenously administered to each of the dogs (n=4) of Comparative Example 1 for 10 min at a dose of 0.3 mg/kg. An electrocardiogram was recorded for 30 min from the start of administration of the FTY720 solution.
Fingolimod (FTY720, product of Sigma-Aldrich Inc.) was dissolved in 1% by mass lactic acid solution (product of Otsuka Pharmaceutical Factory, Inc.) so as to have a concentration of 3 mg/mL.
as §4, with “3” for “0.3”

[3] = 0.1 mg/kg/10 min i.v., individuals #1, #2, 0.1 mg/kg
[4] = 10 min after the administration
[5] = 60 min after the administration

- PR interval change versus base control ([1]; 0.1 mg/kg i.v.): prolongation of PR interval was observed
- PR interval [1, 3]: 71 ms and 110 ms
- PR interval [2, 4]: 78 ms and 71 ms
- RR interval [2, 4]: 438 ms and 311 ms
- PR interval [2, 5]: 75 ms and 89 ms
- RR interval [2, 5]: 304 ms and 552 ms
- change in PR interval (Dogs; high-dose 3 mg/kg/10 min i.v.): no change
- change in PR interval (Dogs; low-dose 0.3 mg/kg/10 min i.v.): no significant change
Structure (SMILES): CCCCCCCCc1ccc(CCC(N)(CO)CO)cc1 [FTY720, Fingolimod]
- Heart rate (HR) ([1]; 0.1 mg/kg/10 min i.v., individuals #1, #2): 105 beats/min
- Heart rate (HR) [1, 3]: 104 beats/min
- QT interval change versus base control ([2]; 0.1 mg/kg i.v., 10 min after the administration): prolongation of QT interval was observed
- PR interval change versus base control ([2]; 0.1 mg/kg i.v., 60 min after the administration): prolongation of PR interval was also observed
- Heart rate (HR) [2, 4]: 137 beats/min and 192 beats/min
- QT interval [2, 4]: 271 ms and 221 ms
- Heart rate (HR) [2, 5]: 197 beats/min and 108 beats/min
- QT interval [2, 5]: 227 ms and 271 ms
- occurrence of atrioventricular block (mouse): not reported
- occurrence of atrioventricular block (dog): not reported
- cases that developed advanced atrioventricular block (2:1 atrioventricular block) (human): 3.4%
- cases that developed second-degree atrioventricular block (Mobitz type I or type II) (human): 6.6%
- cases that developed third-degree atrioventricular block (complete atrioventricular block) (human): 0.3%
- change in heart rate (HR) (Dogs; high-dose 3 mg/kg/10 min i.v.): significantly increased
- change in heart rate (HR) (Dogs; low-dose 0.3 mg/kg/10 min i.v.): no significant change
